Reference: US9334267B2, “RAF inhibitor compounds” (Deciphera Pharmaceuticals, LLC, priority 2012, dated 2016)

Assays:
A375 cells = experiment: A375 cell proliferation assay (CellTiter-Blue/resazurin); type: cell-based; conditions: Homo sapiens, A-375, V600E mutation, read-out: Cell Proliferation Inhibition IC50, nM A375
Method: (§1) A375 cells (catalog #CRL-1619) are obtained from the American Type Culture Collection (ATCC, Manassas, Va.). Briefly, cells are grown in DMEM High Glucose supplemented with 10% characterized fetal bovine serum (Invitrogen, Carlsbad, Calif.) and 1% Penicillin/Streptomycin/L-Glutamine at 37 degrees Celsius, 5% CO2, and 95% humidity. Cells are allowed to expand until reaching 70-95% confluency at which point they are subcultured or harvested for assay use. A serial dilution of test compound is dispensed into a 384-well black clear bottom plate in triplicate. Six hundred twenty-five cells are added per well in 50 μL complete growth medium in the 384-well plate. Plates are incubated for 67 hours at 37 degrees Celsius, 5% CO2, and 95% humidity. At the end of the incubation period, 10 μL of a 440 μM solution of resazurin (Sigma, St. Louis, Mo.) in PBS is added to each well of the plate and plates are incubated for an additional 5 hours at 37 degrees Celsius, 5% CO2, and 95% humidity. Plates are read on a Synergy2 reader (Biotek, Winooski, Vt.) using an excitation of 540 nm and an emission of 600 nm. Data is analyzed using Prism software (Graphpad, San Diego, Calif.) to calculate IC50 values.
(§2) The A375, HT-29, and Colo-205 cells (ATCC) harbor a V600E mutation.

Sk-Mel-2 cells = experiment: SK-Mel-2 cell proliferation assay (resazurin); type: cell-based; conditions: Homo sapiens, N-Ras mutation B-Raf wild type, read-out: Cell Proliferation Inhibition IC50, nM SK-Mel-2
human wild type c-KIT = molecular target: T1, human wild type c-KIT (Homo sapiens, UniProt P10721); experiment: Enzymatic assay of c-Kit kinase activity (poly E4Y phosphorylation, coupled PK/LDH); type: biochemical
T1 construct: GST (N); made in house
Description: c-Kit is an important oncogene, and its overexpression and genetic mutations often occur in melanoma and gastrointestinal stromal tumor (GIST) patients. In the c-Kit enzymatic assay, the phosphorylation of poly E4Y by ATP catalyzed by human c-Kit is monitored spectrophotometrically. The ADP produced from the kinase reaction is coupled to pyruvate kinase/lactate dehydrogenase (PK/LDH) reactions where NAD is formed from pyruvate and NADH. NADH can be detected by absorbance at 340 nm, as described above for enzymatic assays of kinase activities of B-Raf, C-Raf and B-Raf mutations.
The assay reaction mixture includes 6 nM human wild type c-KIT, 1 mg/mL Poly (Glu,Tyr) (Sigma), 1 mM Phosphoenol-pyruvate, 280 μM NADH, 5 U/3.5 U (per 100 ul) Pyruvate Kinase/Lactate Dehydrogenase, 85 mM Tris, pH 7.5, 17 mM MgCl2, 0.0042% Triton® X-100, 0.005% BSA, 1% DMSO. Test compound is incubated with the reaction mixture for 0.5 hour before adding 200 μM ATP to start the reaction at 30° C.

Colo205 cells = experiment: Colo-205 cell proliferation assay (resazurin); type: cell-based; conditions: Homo sapiens; Colo-205 cells, V600E mutation; read-out: Cell Proliferation Inhibition IC50, nM Colo-205
Method: as §1, with “Colo205 cells” for “A375 cells”, “(catalog #HB-8307)” for “(catalog #CRL-1619)”, “in RPMI 1640” for “in DMEM High Glucose”, “Carlsbad, Calif.), 1 mM sodium pyruvate,” for “Carlsbad, Calif.)”, “reaching 30-60%” for “reaching 70-95%”, “triplicate. One thousand two-hundred fifty” for “triplicate. Six hundred twenty-five”
as §2

T1 sequence (P10721 26-976): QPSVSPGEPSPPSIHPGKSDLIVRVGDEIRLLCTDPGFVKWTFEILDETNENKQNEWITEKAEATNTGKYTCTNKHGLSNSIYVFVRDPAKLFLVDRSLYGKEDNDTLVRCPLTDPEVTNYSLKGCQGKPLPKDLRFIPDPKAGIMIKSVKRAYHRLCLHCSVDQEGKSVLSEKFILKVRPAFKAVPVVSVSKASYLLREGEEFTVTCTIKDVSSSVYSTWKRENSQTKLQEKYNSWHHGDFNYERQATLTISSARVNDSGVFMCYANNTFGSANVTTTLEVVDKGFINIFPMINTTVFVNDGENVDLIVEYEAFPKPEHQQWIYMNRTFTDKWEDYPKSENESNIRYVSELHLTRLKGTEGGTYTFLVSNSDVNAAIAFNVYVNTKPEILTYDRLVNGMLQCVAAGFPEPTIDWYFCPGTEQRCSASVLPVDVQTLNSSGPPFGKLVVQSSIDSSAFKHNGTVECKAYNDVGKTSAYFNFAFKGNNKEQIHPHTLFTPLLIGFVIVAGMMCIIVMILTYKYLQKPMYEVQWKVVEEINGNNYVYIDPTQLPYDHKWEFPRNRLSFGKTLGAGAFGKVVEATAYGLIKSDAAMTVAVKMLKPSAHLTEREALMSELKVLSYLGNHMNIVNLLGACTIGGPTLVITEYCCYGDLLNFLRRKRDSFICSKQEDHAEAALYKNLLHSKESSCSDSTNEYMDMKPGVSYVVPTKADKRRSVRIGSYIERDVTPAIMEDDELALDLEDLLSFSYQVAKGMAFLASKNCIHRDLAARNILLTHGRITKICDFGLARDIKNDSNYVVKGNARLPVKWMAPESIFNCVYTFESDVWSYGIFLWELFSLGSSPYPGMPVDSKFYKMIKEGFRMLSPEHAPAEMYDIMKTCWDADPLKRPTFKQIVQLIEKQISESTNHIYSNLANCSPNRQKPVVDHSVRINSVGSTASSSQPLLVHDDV

SMILES	IC50 (A375 cells) [nM]	IC50 (Sk-Mel-2 cells) [nM]	IC50 (human wild type c-KIT) [nM]	IC50 (Colo205 cells) [nM]
CNc1ncc2cc(-c3cc(NC(=O)NCCC(C)(C)C)c(F)cc3F)c(C)nc2n1 [Example 1, 1-(2,4-Difluoro-5-(7-methyl-2-(methylamino)pyrido[2,3-d]pyrimidin-6-yl)phenyl)-3-(3,3-dimethylbutyl)urea]	< 100	100 to 1000	< 150	< 100
CNc1ncc2cc(-c3ccc(F)c(NC(=O)NCCC(C)(C)C)c3)c(C)nc2n1 [Example 2, 1-(3,3-Dimethylbutyl)-3-(2-fluoro-5-(7-methyl-2-(methylamino)pyrido[2,3-d]pyrimidin-6-yl)phenyl)urea]	< 100	< 100	< 150	< 100
CNc1ncc2cc(-c3cc(NC(=O)NCCC(C)(C)C#N)c(F)cc3C)c(C)nc2n1 [Example 3, 1-(3-Cyano-3-methylbutyl)-3-(2-fluoro-4-methyl-5-(7-methyl-2-(methylamino)pyrido[2,3-d]pyrimidin-6-yl)phenyl)urea]	< 100	100 to 1000	< 150	< 100
CNc1ncc2cc(-c3cc(NC(=O)NCCC(C)(C)F)c(F)cc3C)c(C)nc2n1 [Example 4, 1-(3-Fluoro-3-methylbutyl)-3-(2-fluoro-4-methyl-5-(7-methyl-2-(methylamino)pyrido[2,3-d]pyrimidin-6-yl)phenyl)urea]	100 to 1000	100 to 1000	< 150	100 to 1000
COCCNc1ncc2cc(-c3cc(NC(=O)NCCC(C)(C)C)c(F)cc3C)c(C)nc2n1 [Example 5, 1-(3,3-Dimethylbutyl)-3-(2-fluoro-5-(2-((2-methoxyethyl)amino)-7-methylpyrido[2,3-d]pyrimidin-6-yl)-4-methylphenyl)urea]	< 100	100 to 1000	< 150	< 100
CNc1ncc2cc(-c3cc(NC(=O)NC4CC(C)(C)C4)c(F)cc3C)c(C)nc2n1 [Example 6, 1-(3,3-Dimethylcyclobutyl)-3-(2-fluoro-4-methyl-5-(7-methyl-2-(methylamino)pyrido[2,3-d]pyrimidin-6-yl)phenyl)urea]	< 100	< 100	< 150	< 100
CNc1ncc2cc(-c3cc(NC(=O)NC4CC(C)(C)C4)c(F)cc3F)c(C)nc2n1 [Example 7, 1-(2,4-Difluoro-5-(7-methyl-2-(methylamino)pyrido[2,3-d]pyrimidin-6-yl)phenyl)-3-(3,3-dimethylcyclobutyl)urea]	< 100	< 100	< 150	< 100
CNc1ncc2cc(-c3cc(NC(=O)NCC(O)C(C)(C)C)c(F)cc3C)cnc2n1 (stereo not drawn) [Example 8, 1-[2-Fluoro-4-methyl-5-(2-methylaminopyrido[2,3-d]pyrimidin-6-yl)phenyl]-3-(2-hydroxy-3,3-dimethyl-butyl)urea]	100 to 1000	100 to 1000	< 150	< 100
CNc1ncc2cc(-c3cc(NC(=O)NCC4CC4(C)C)c(F)cc3C)cnc2n1 (stereo not drawn) [Example 9]	100 to 1000	100 to 1000	< 150	100 to 1000
Cc1cc(F)c(NC(=O)NCC(O)C(C)(C)C)cc1-c1cc2cnc(N)nc2nc1C (stereo not drawn) [Example 10]	100 to 1000	1000 to 10000	< 150	100 to 1000
CNc1ncc2cc(-c3cc(NC(=O)NCC(O)C(C)(C)C)c(F)cc3F)c(C)nc2n1 (stereo not drawn) [Example 11, 1-[2,4-Difluoro-5-(7-methyl-2-methylamino-pyrido[2,3-d]pyrimidin-6-yl)phenyl]-3-(2-hydroxy-3,3-dimethyl-butyl)urea]	100 to 1000	100 to 1000	< 150	100 to 1000
CNc1ncc2cc(-c3cc(NC(=O)NCCC(C)(C)C#N)c(F)cc3F)c(C)nc2n1 [Example 12, 1-(3-Cyano-3-methylbutyl)-3-(2,4-difluoro-5-(7-methyl-2-(methylamino)pyrido[2,3-d]pyrimidin-6-yl)phenyl)urea]	1000 to 10000	100 to 1000	< 150	100 to 1000
CNc1ncc2cc(-c3ccc(F)c(NC(=O)NCCC(C)(C)C#N)c3)c(C)nc2n1 [Example 13, 1-(3-Cyano-3-methylbutyl)-3-(2-fluoro-5-(7-methyl-2-(methylamino)pyrido[2,3-d]pyrimidin-6-yl)phenyl)urea]	1000 to 10000	100 to 1000	< 150	100 to 1000
CNc1ncc2cc(-c3cc(NC(=O)NCCC(C)(C)OC)c(F)cc3C)c(C)nc2n1 [Example 14, 1-(2-Fluoro-4-methyl-5-(7-methyl-2-(methylamino)pyrido[2,3-d]pyrimidin-6-yl)phenyl)-3-(3-methoxy-3-methylbutyl)urea]	100 to 1000	1000 to 10000	< 150	< 100
CNc1ncc2cc(-c3cc(NC(=O)NCC(O)C(C)(C)C)c(F)cc3C)c(C)nc2n1 (stereo not drawn) [Example 15, 1-[2-Fluoro-4-methyl-5-(7-methyl-2-methylamino-pyrido[2,3-d]pyrimidin-6-yl)phenyl]-3-(2-hydroxy-3,3-dimethyl-butyl)urea]	< 100	100 to 1000	< 150	< 100
Cc1cc(F)c(NC(=O)NCCC(C)(C)C)cc1-c1cc2cnc(NCCO)nc2nc1C [Example 16, 1-(3,3-Dimethylbutyl)-3-[2-fluoro-5-[2-(2-hydroxyethylamino)-7-methyl-pyrido[2,3-d]pyrimidin-6-yl]-4-methyl-phenyl]urea]	< 100	100 to 1000	< 150	< 100
Cc1cc(F)c(NC(=O)NCCC(C)(C)C)cc1-c1cc2cnc(NCCN(C)C)nc2nc1C [Example 17, 1-[5-[2-(2-Dimethylaminoethylamino)-7-methyl-pyrido[2,3-d]pyrimidin-6-yl]-2-fluoro-4-methyl-phenyl]-3-(3,3-dimethylbutyl)urea]	< 100	100 to 1000	< 150	< 100
CNc1ncc2cc(-c3cc(NC(=O)NC[C@H](O)C(C)(C)C)c(F)cc3C)cnc2n1 [Example 18, 1-[2-Fluoro-4-methyl-5-(2-methylaminopyrido[2,3-d]pyrimidin-6-yl)phenyl]-3-[(2R)-2-hydroxy-3,3-dimethyl-butyl]urea]	100 to 1000	100 to 1000	–	< 100
CNc1ncc2cc(-c3cc(NC(=O)NC[C@@H](O)C(C)(C)C)c(F)cc3C)cnc2n1 [Example 19, 1-[2-fluoro-4-methyl-5-(2-methylaminopyrido[2,3-d]pyrimidin-6-yl)phenyl]-3-[(2S)-2-hydroxy-3,3-dimethyl-butyl]urea]	100 to 1000	100 to 1000	–	100 to 1000
Cc1cc(F)c(NC(=O)NCCC(C)(C)C)cc1-c1cc2cnc(N)nc2nc1C [Example 20, 1-(5-(2-Amino-7-methylpyrido[2,3-d]pyrimidin-6-yl)-2-fluoro-4-methylphenyl)-3-(3,3-dimethylbutyl)urea]	< 100	< 100	< 150	< 100
